According to patent publication EP4768499A1, “MACROCYCLIC PEPTIDE COMPOUND HAVING CELL MEMBRANE PERMEABILITY AND METABOLIC STABILITY, AND LIBRARY CONTAINING SAME” (Chugai Seiyaku Kabushiki Kaisha, priority 2023, dated 2025):
Read-outs that look alike come from different tables or passages of the source. Starred links: 1 amine or outer side, 2 acyl side, 3 side chain; linkers in the order of their positions; H or OH if unused. Positions of bridges follow the written chain, without caps; N, C: chain ends. Non-standard residues stand in square brackets, D forms with d. Residues, ends and D or L forms follow the SMILES beside them. *: point of attachment. NMeF = CN[C@@H](Cc1ccccc1)C(=O)O; NMeGABA = CN(CCCC(=O)[*:2])[*:1]; NMeI = CC[C@H](C)[C@H](NC)C(=O)O; hPhe = N[C@@H](CCc1ccccc1)C(=O)O; NMeβAla = CN(CCC(=O)[*:2])[*:1]; NMeL = CN[C@@H](CC(C)C)C(=O)O; NMeV = CN[C@H](C(=O)O)C(C)C; NMeAbu = CC[C@H](NC)C(=O)O; NMeA = CN[C@@H](C)C(=O)O; Piperidide = C1CCN(*)CC1; Abu = CC[C@H](N)C(=O)O; NBuGly = CCCCNCC(=O)O; βAla = NCCC(=O)O; Sar = CNCC(=O)O; tBu = CC(C)(C)*

Columns and labels:
[1] = Metabolic stability test: liver microsomal stability assay; type: in vitro ADME, mouse; conditions: for microsomal CLint at 1 µM: male, pH 7.4, presence of NADPH, read-out: Mouse Hepatic Microsome CLh,int NADPH(+)
[2] = Membrane permeability test using Caco-2 cells with preincubation; type: in vitro ADME; conditions: Caco-2
[3] = tested on: Caco-2 cells; test: as above; type: in vitro ADME
[4] = mouse liver microsomes 0.5 mg protein/mL, compound 1 µM
[5] = mouse liver microsomes 0.5 mg protein/mL, compound 1 µM, absence of NADPH
[6] = preincubation 20 to 24 hours, Apical FaSSIF/HBSS pH 6.0, Basal HBSS 4% BSA pH 7.4, 180 minutes, read-out: Caco2 Papp
[7] = Caco-2 cells, preincubation 20 to 24 hours, apical FaSSIF/HBSS 1% DMSO pH 6.0, basal HBSS 4% BSA pH 7.4, basal sample at 180 minutes

Structure (SMILES) | microsomal CLint at 1 µM [1, 4] | Mouse Hepatic Microsome CLh,int NADPH(-) [1, 5] | Papp A→B [2, 6] | Caco2 Papp (10^-6 cm/sec) [3, 7] | Mouse Hepatic Microsome CLh,int NADPH(-) [1] | Papp A→B [2] | Caco2 Papp (10^-6 cm/sec) ([3]; Caco-2)
CC[C@H](C)[C@@H]1NC(=O)[C@H](COC(C)(C)C)NC(=O)[C@H]([C@@H](C)O)NC(=O)[C@H](Cc2ccccc2)N(C)C(=O)[C@H](C)N(C)C(=O)[C@H](CC(C)C)N(C)C(=O)[C@H](CCc2ccccc2)NC(=O)[C@@H]2CCCN2C(=O)[C@H]([C@@H](C)CC)NC(=O)[C@H](CC(C)C)N(C)C(=O)[C@H](C)NC(=O)CCCN(C)C(=O)C[C@@H](C(=O)N2CCCCC2)NC(=O)[C@H](CC(C)C)N(C)C1=O [pd022] ([NMeGABA]A[NMeL]IP[hPhe][NMeL][NMeA][NMeF]TS(tBu)I[NMeL]D-Piperidide; lactam N-14) | 44.4 µL/min/mg | 36.4 µL/min/mg Protein | 0.15 ×10⁻⁶ cm/s | 0.15 10^-6 cm/sec | – | – | –
CC[C@@H]1NC(=O)[C@H](CC(C)C)N(C)C(=O)[C@H](C)NC(=O)[C@@H]2CCCN2C(=O)[C@H]([C@@H](C)CC)NC(=O)[C@H](CC(C)C)N(C)C(=O)[C@H](CCc2ccccc2)NC(=O)CCCN(C)C(=O)C[C@@H](C(=O)N2CCCCC2)NC(=O)[C@H](CC(C)C)N(C)C(=O)[C@H]([C@@H](C)CC)NC(=O)[C@H](C)N(C)C(=O)[C@H]([C@@H](C)O)NC(=O)[C@H](Cc2ccccc2)N(C)C1=O [pd023] ([NMeGABA][hPhe][NMeL]IPA[NMeL][Abu][NMeF]T[NMeA]I[NMeL]D-Piperidide; lactam N-14) | 43.3 µL/min/mg | 26.2 µL/min/mg Protein | 0.03 ×10⁻⁶ cm/s | 0.03 10^-6 cm/sec | – | – | –
CC[C@H](C)[C@H]1C(=O)NCCC(=O)N(C)[C@@H](CC(C)C)C(=O)N[C@H](C(=O)N2CCCCC2)CC(=O)N(C)[C@@H](C)C(=O)N[C@@H](CC(C)C)C(=O)N[C@@H]([C@@H](C)O)C(=O)N(C)[C@@H](Cc2ccccc2)C(=O)NCCC(=O)N(C)[C@@H](C(C)C)C(=O)N[C@@H](CC(C)C)C(=O)N(C)[C@@H]([C@@H](C)CC)C(=O)N[C@@H](CCc2ccccc2)C(=O)N(C)CC(=O)N1C [pd024] ([NMeA]LT[NMeF][βAla][NMeV]L[NMeI][hPhe][Sar][NMeI][βAla][NMeL]D-Piperidide; lactam N-14) | – | – | – | – | 20.0 µL/min/mg Protein | 0.3 ×10⁻⁶ cm/s | 0.30 10^-6 cm/sec
CC[C@H](C)[C@@H]1NC(=O)[C@H](C)NC(=O)[C@H](C(C)C)N(C)C(=O)[C@H](COC(C)(C)C)NC(=O)[C@H](C)N(C)C(=O)C[C@@H](C(=O)N2CCCCC2)NC(=O)[C@H](C(C)C)NC(=O)[C@H](Cc2ccccc2)N(C)C(=O)[C@H](CC(C)C)N(C)C(=O)[C@H]([C@@H](C)O)NC(=O)[C@H](CC)N(C)C(=O)[C@H](Cc2ccccc2)N(C)C(=O)[C@H](C)NC(=O)[C@@H]2CCCN2C1=O [pd025] ([NMeA]S(tBu)[NMeV]AIPA[NMeF][NMeAbu]T[NMeL][NMeF]VD-Piperidide; lactam N-14) | 14.8 µL/min/mg | 15.8 µL/min/mg Protein | 0.05 ×10⁻⁶ cm/s | 0.05 10^-6 cm/sec | – | – | –
CCCCN1CC(=O)N[C@@H]([C@@H](C)CC)C(=O)N(C)[C@@H](CC(C)C)C(=O)N[C@@H](C(C)C)C(=O)N[C@H](C(=O)N2CCCCC2)CC(=O)N(C)[C@@H](C)C(=O)N(C)[C@@H](CC(C)C)C(=O)N[C@@H]([C@@H](C)O)C(=O)N(C)[C@@H](Cc2ccccc2)C(=O)N[C@@H](CC)C(=O)N(C)[C@@H](Cc2ccccc2)C(=O)N[C@@H](C)C(=O)N(C)CCC(=O)N[C@@H](CC(C)C)C1=O [pd026] ([NMeA][NMeL]T[NMeF][Abu][NMeF]A[NMeβAla]L[NBuGly]I[NMeL]VD-Piperidide; lactam N-14) | 63.5 µL/min/mg | 29.9 µL/min/mg Protein | 0.58 ×10⁻⁶ cm/s | 0.58 10^-6 cm/sec | – | – | –
